Results taken from patent US8623859B2, “Bradykinin B1 antagonists” (Evotec AG, priority 2008, dated 2014).
Counter-ions that a name gives are not always drawn.

Target: T1, human B1 (Homo sapiens, UniProt P46663)
T1 construct: host or cells: CHO-K1
T1 sequence (P46663 1-353): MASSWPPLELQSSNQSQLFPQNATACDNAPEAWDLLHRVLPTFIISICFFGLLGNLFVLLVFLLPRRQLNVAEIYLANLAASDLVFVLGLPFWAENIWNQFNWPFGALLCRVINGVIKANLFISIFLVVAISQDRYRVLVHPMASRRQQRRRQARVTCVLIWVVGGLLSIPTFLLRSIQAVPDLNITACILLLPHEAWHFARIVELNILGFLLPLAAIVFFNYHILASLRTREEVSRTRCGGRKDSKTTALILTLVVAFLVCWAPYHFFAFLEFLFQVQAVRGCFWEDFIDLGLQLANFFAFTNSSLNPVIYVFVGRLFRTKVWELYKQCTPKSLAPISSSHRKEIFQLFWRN
Experiment: Calcium flux assay for Bradykinin B1 antagonist, CHO-K1 cell line expressing human B1
Format: cell-based
Details: CHO-K1 cells expressing human B1, agonist Lys-(Des-Arg)-Bradykinin, read-out: Potency (IC50 value against human B1)
Description: Calcium Flux Assay for Bradykinin B1 Antagonist
The potency to inhibit the Bradykinin B1 receptors was determined for the compounds of this invention in a cell-based fluorescent calcium-mobilization assay. The assay measures the ability of test compounds to inhibit Bradykinin B1 receptor agonist-induced increase of intracellular free Ca^2+ in cell lines expressing B1.
The change of the intracellular Ca^2+ concentration is monitored with a specifically designed fluorescent plate reader (FlexStation, Molecular Devices).
CHO-K1 cell line expressing human B1 was purchased from Euroscreen (Gosselies, Belgium, with reference name hBl-D1). CHO-K1 cell lines expressing rat B1 or mouse B1 were established in the following way: the full-length receptor-coding cDNA clones were obtained by PCR performed on rat or mouse brain cDNAs. The respective cDNAs were cloned into an expression vector under the control of a CMV promotor. The resultant plasmids were introduced into CHO-K1 cells with liposome technology (FuGENE; Roche Diagnostics, Basel), according to the standard protocols described by the manufacturer. Cell lines expressing a Bradykinin receptor were selected in the culture medium containing 400 μg/ml G418 (Sigma). From selected cell populations, monoclonal cell lines were isolated by single cell cloning. The expression of Bradykinin receptors was confirmed by immunofluorescence staining of the cells, as well as by calcium flux assay.
Human B1-expressing cells were grown in Nutrient Mixture Ham's F12 (Sigma) containing 10% Foetal bovine serum (Sigma) and 400 μg/ml G418 (Sigma), 5 μg/ml puromycim (Sigma); Rat B1 and mouse B1-expressing cells were grown in DMEM/F12 medium (Sigma) containing 10% Foetal bovine serum (Sigma) and 400 μg/ml G418 (Sigma).
For the calcium flux assay, 80% confluent cells were detached from the culture vessels with Versene (Gibco; for human B1 cell-line) or with 1× trypsin-EDTA solution (Sigma; for rodent B1 cell-line), and seeded into 384-well plates (Cell binding Surface; Corning, N.Y.; #3683) at a density of 15,000 cells per well for human B1 or at a density of 20,000 cells per well for rodent B1. Cells were seeded in a volume of 50 μl in medium without antibiotics and incubated overnight in a humidified atmosphere with 5% CO2 at 37° C. The following day, the medium was replaced with 20 μl of 5 μM Fluo-4AM dye (Molecular Probes) in assay buffer (2.5 mM probenicid, 1 mg/ml pluronic acid, 0.1% BSA, 135 mM NaCl, 5 mM KCl, 1.8 mM CaCl, 1 mM MgCl2, 10 mM HEPES, 5.6 mM glucose, 0.05% gelatine, pH 7.4). The calcium indicator loaded cells were incubated at 37° C. for 2 hrs. Extracellular dye was then removed and each well was filled with 45 μl of assay buffer. Cell plates were kept in dark until used. Test compounds were assayed at 8 concentrations in triplicate. Serial 10-fold dilutions in 100% DMSO were made at a 100-times higher concentration than the final concentration, and then diluted 1:10 in assay buffer. 5 μl of each diluted compound was added to the well of cell plates (yielding final concentration with 1% DMSO), and incubated for 30 min at 25° C. before the addition of B1 agonist on the FlexStation.
The addition of agonist 20 μl per well to the assay plate was carried out on the FlexStation while continuously monitoring Ca^2+-dependent fluorescence at 538 nm. The integrated values, normalized with the background fluorescence, were plotted against the logarithm of the antagonist concentrations.

Compound | IC50 [µM]
COc1cc(C)c(S(=O)(=O)N(Cc2nc(C(=O)N3CCN(Cc4ccccn4)CC3)co2)C2CC2)c(C)c1 [Ex 227, N-Cyclopropyl-4-methoxy-2,6-dimethyl-N-[(4-{[4-(pyridin-2-ylmethyl)piperazin-1-yl]carbonyl}-1,3-oxazol-2-yl)methyl]benzenesulfonamide trifluoroacetate] | 0.1 to 1
COc1cc(C)c(S(=O)(=O)N(C)Cc2cc(C(=O)N3CCN(CCN4CCOCC4)CC3)co2)c(C)c1 [Ex 35, 4-methoxy-N,2,6-trimethyl-N-[(4-{[4-(2-morpholin-4-ylethyl)piperazin-1-yl]carbonyl}furan-2-yl)methyl]benzenesulfonamide] | 0.1 to 1
COc1cc(C)c(S(=O)(=O)N(Cc2cc(C(=O)N(C)Cc3ccc(C4=NCCN4)cc3)co2)C2CC2)c(C)c1 [Ex 83, 5-({cyclopropyl[(4-methoxy-2,6-dimethylphenyl)sulfonyl]amino}methyl)-N-[4-(4,5-dihydro-1H-imidazol-2-yl)benzyl]-N-methylfuran-3-carboxamide trifluoroacetate] | 0.01 to 0.1
COc1cc(C)c(S(=O)(=O)N(Cc2cc(C(=O)N(C)Cc3ccc(CN4CCC(OC)CC4)cc3)co2)C2CC2)c(C)c1 [Ex 143, 5-({Cyclopropyl[(4-methoxy-2,6-dimethylphenyl)sulfonyl]amino}methyl)-N-{4-[(4-methoxypiperidin-1-yl)methyl]benzyl}-N-methylfuran-3-carboxamide] | 0.01 to 0.1
COc1cc(C)c(S(=O)(=O)N(C)Cc2cc(C(=O)NC(C)c3ccc(CN4CCCC4)cc3)co2)c(C)c1 (centres unmarked) [Ex 90, 5-({[(4-Methoxy-2,6-dimethylphenyl)sulfonyl](methyl)amino}methyl)-N-{1-[4-(pyrrolidin-1-ylmethyl)phenyl]ethyl}furan-3-carboxamide] | 0.1 to 1
COc1cc(C)c(S(=O)(=O)N(C)Cc2cc(C(=O)NCc3ccc(CN4CCCC4)cc3)co2)c(C)c1 [Ex 37, 5-({[(4-methoxy-2,6-dimethylphenyl)sulfonyl](methyl)amino}methyl)-N-[4-(pyrrolidin-1-ylmethyl)benzyl]furan-3-carboxamide] | 0.1 to 1
COc1cc(C)c(S(=O)(=O)N(C)Cc2cc(C(=O)N(C)Cc3ccc(CN4CC(OC)C4)cc3)co2)c(C)c1 [Ex 133, N-{4-[(3-Methoxyazetidin-1-yl)methyl]benzyl}-5-({[(4-methoxy-2,6-dimethylphenyl)sulfonyl](methyl)amino}methyl)-N-methylfuran-3-carboxamide] | 0.1 to 1
COc1cc(C)c(S(=O)(=O)N(C)Cc2nnc(C(=O)N3CCN(CC4CCN(C(=O)OC(C)(C)C)CC4)CC3)o2)c(C)c1 [Ex 263, tert-Butyl 4-[(4-{[5-({[(4-methoxy-2,6-dimethylphenyl)sulfonyl](methyl)amino}methyl)-1,3,4-oxadiazol-2-yl]carbonyl}piperazin-1-yl)methyl]piperidine-1-carboxylate] | 0.1 to 1
COc1cc(C)c(S(=O)(=O)N(C)Cc2nc(C(=O)N(C)CCc3ccc(C4=NCCN4)cc3)cs2)c(C)c1 [Ex 80, N-{2-[4-(4,5-dihydro-1H-imidazol-2-yl)phenyl]ethyl}-2-({[(4-methoxy-2,6-dimethylphenyl)sulfonyl](methyl)amino}methyl)-N-methyl-1,3-thiazole-4-carboxamide] | 0.1 to 1
COc1cc(C)c(S(=O)(=O)N(C)Cc2noc(C(=O)N3CCN(CC4CCCN(C)C4)CC3)n2)c(C)c1 (centres unmarked) [Ex 303, 4-Methoxy-N,2,6-trimethyl-N-{[5-({4-[(1-methylpiperidin-3-yl)methyl]piperazin-1-yl}carbonyl)-1,2,4-oxadiazol-3-yl]methyl}benzenesulfonamide trifluoroacetamide] | 0.1 to 1
COc1cc(C)c(S(=O)(=O)N(Cc2cc(C(=O)N(C)Cc3ccc(CN4CCC(C(=O)N(C)C)C4)cc3)co2)C2CC2)c(C)c1 (centres unmarked) [Ex 147, 1-(4-{[{[5-({Cyclopropyl[(4-methoxy-2,6-dimethylphenyl)sulfonyl]amino}methyl)furan-3-yl]carbonyl}(methyl)amino]methyl}benzyl)-N,N-dimethylpyrrolidine-3-carboxamide] | 0.01 to 0.1

Second part, the compound after the results:

IC50 [µM] | Compound
0.01 to 0.1 | COc1cc(C)c(S(=O)(=O)N(C)Cc2cc(C(=O)NCc3cc(F)cc(CN4CCCC4)c3)co2)c(C)c1 [Ex 155, N-[3-Fluoro-5-(pyrrolidin-1-ylmethyl)benzyl]-5-({[(4-methoxy-2,6-dimethylphenyl)sulfonyl](methyl)amino}methyl)furan-3-carboxamide trifluoroacetate]
< 0.01 | COc1cc(C)c(S(=O)(=O)N(C)Cc2cc(C(=O)N(C)Cc3ccc(C4=NCCN4)cc3)co2)c(C)c1 [Ex 29, N-[4-(4,5-dihydro-1H-imidazol-2-yl)benzyl]-5-({[(4-methoxy-2,6-dimethylphenyl)sulfonyl](methyl)amino}methyl)-N-methylfuran-3-carboxamide]
0.01 to 0.1 | COc1cc(C)c(S(=O)(=O)N(C)Cc2cc(C(=O)N(C)Cc3ccc(CN4CCC(O)C4)cc3)co2)c(C)c1 (centres unmarked) [Ex 135, N-{4-[(3-Hydroxypyrrolidin-1-yl)methyl]benzyl}-5-({[(4-methoxy-2,6-dimethylphenyl)sulfonyl](methyl)amino}methyl)-N-methylfuran-3-carboxamide]
0.01 to 0.1 | COc1cc(C)c(S(=O)(=O)N(C)Cc2nc(C(=O)N3CCN(C4CCN(C)CC4)CC3)co2)c(C)c1 [Ex 66, 4-Methoxy-N,2,6-trimethyl-N-[(4-{[4-(1-methylpiperidin-4-yl)piperazin-1-yl]carbonyl}-1,3-oxazol-2-yl)methyl]benzenesulfonamide]
< 0.01 | COc1cc(C)c(S(=O)(=O)N(Cc2nc(C(=O)N3CCN(Cc4cnc5ccccc5c4)CC3)co2)C2CC2)c(C)c1 [Ex 254, N-Cyclopropyl-4-methoxy-2,6-dimethyl-N-[(4-{[4-(quinolin-3-ylmethyl)piperazin-1-yl]carbonyl}-1,3-oxazol-2-yl)methyl]benzenesulfonamide]
< 0.01 | COc1cc(C)c(S(=O)(=O)N(C)Cc2noc(C(=O)N(C)CCc3ccc(C4=NCCN4)cc3)n2)c(C)c1 [Ex 301, N-{2-[4-(4,5-Dihydro-1H-imidazol-2-yl)phenyl]ethyl}-3-({[(4-methoxy-2,6-dimethylphenyl)sulfonyl](methyl)amino}methyl)-N-methyl-1,2,4-oxadiazole-5-carboxamide trifluoroacetamide]
< 0.01 | COc1cc(C)c(S(=O)(=O)N(Cc2nc(C(=O)N3CCC(O)(CN4CCN(C)CC4)CC3)co2)C2CC2)c(C)c1 [Ex 223, N-Cyclopropyl-N-{[4-({4-hydroxy-4-[(4-methylpiperazin-1-yl)methyl]piperidin-1-yl}carbonyl)-1,3-oxazol-2-yl]methyl}-4-methoxy-2,6-dimethylbenzenesulfonamide trifluoroacetate]
< 0.01 | COc1cc(C)c(S(=O)(=O)N(C)Cc2nnc(C(=O)N(C)CCc3ccc(C4=NCCN4)cc3)o2)c(C)c1 [Ex 267, N-{2-[4-(4,5-Dihydro-1H-imidazol-2-yl)phenyl]ethyl}-5-({[(4-methoxy-2,6-dimethylphenyl)sulfonyl](methyl)amino}methyl)-N-methyl-1,3,4-oxadiazole-2-carboxamide]
< 0.01 | COc1cc(C)c(S(=O)(=O)N(Cc2nc(C(=O)N3CCN(Cc4ccc(OC)nc4)CC3)co2)C2CC2)c(C)c1 [Ex 235, N-Cyclopropyl-4-methoxy-N-{[4-({4-[(6-methoxypyridin-3-yl)methyl]piperazin-1-yl}carbonyl)-1,3-oxazol-2-yl]methyl}-2,6-dimethylbenzenesulfonamide trifluoroacetate]
